Measurements as given in PubChem BioAssay (NCI).
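In this assay, cells in 96-well plates receive the compound at five concentrations for 48 hours. Endpoints are linearly interpolated between the surrounding concentrations. Here, GI50 denotes the concentration required for 50% inhibition of growth. TGI marks complete inhibition of growth.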

Assays:
Experiment in all cases: NCI-60 cell line screen, 48 h
OVCAR-5 ovarian = system: OVCAR-5 ovarian
786-0 renal = system: 786-0 renal
MCF7 breast = system: MCF7 breast
MDA-MB-231 breast = system: MDA-MB-231 breast
DU-145 prostate = system: DU-145 prostate
HOP-62 NSCLC = system: HOP-62 NSCLC
SN12C renal = system: SN12C renal
HCT-116 colon = system: HCT-116 colon
NCI/ADR-RES ovarian = system: NCI/ADR-RES ovarian
KM12 colon = system: KM12 colon
SNB-19 CNS = system: SNB-19 CNS
SW-620 colon = system: SW-620 colon
PC-3 prostate = system: PC-3 prostate
K-562 leukemia = system: K-562 leukemia
SK-OV-3 ovarian = system: SK-OV-3 ovarian
HS 578T breast = system: HS 578T breast
LOX IMVI melanoma = system: LOX IMVI melanoma
SK-MEL-2 melanoma = system: SK-MEL-2 melanoma
A549 NSCLC = system: A549 NSCLC
SK-MEL-5 melanoma = system: SK-MEL-5 melanoma
EKVX NSCLC = system: EKVX NSCLC
UACC-257 melanoma = system: UACC-257 melanoma
SF-539 CNS = system: SF-539 CNS
A498 renal = system: A498 renal
U251 CNS = system: U251 CNS
RXF 393 renal = system: RXF 393 renal
OVCAR-4 ovarian = system: OVCAR-4 ovarian
HL-60(TB) leukemia = system: HL-60(TB) leukemia
COLO 205 colon = system: COLO 205 colon
RPMI-8226 leukemia = system: RPMI-8226 leukemia
SF-268 CNS = system: SF-268 CNS
MDA-MB-435 = system: MDA-MB-435
MALME-3M melanoma = system: MALME-3M melanoma
UACC-62 melanoma = system: UACC-62 melanoma
HCT-15 colon = system: HCT-15 colon
NCI-H522 lung = system: NCI-H522 lung
SK-MEL-28 melanoma = system: SK-MEL-28 melanoma
TK-10 renal = system: TK-10 renal
SNB-75 CNS = system: SNB-75 CNS
UO-31 renal = system: UO-31 renal
NCI-H226 lung = system: NCI-H226 lung
OVCAR-8 ovarian = system: OVCAR-8 ovarian
HCC-2998 colon = system: HCC-2998 colon
IGROV1 ovarian = system: IGROV1 ovarian
SR leukemia = system: SR leukemia
ACHN renal = system: ACHN renal
HOP-92 NSCLC = system: HOP-92 NSCLC
M14 melanoma = system: M14 melanoma
NCI-H23 lung = system: NCI-H23 lung
HT29 colon = system: HT29 colon
SF-295 CNS = system: SF-295 CNS
NCI-H460 lung = system: NCI-H460 lung
MOLT-4 leukemia = system: MOLT-4 leukemia
BT-549 breast = system: BT-549 breast
T-47D breast = system: T-47D breast
CCRF-CEM leukemia = system: CCRF-CEM leukemia
OVCAR-3 ovarian = system: OVCAR-3 ovarian
CAKI-1 renal = system: CAKI-1 renal

CS(=O)(=O)CCNCc1cc(-c2cc3c(Nc4ccc(OCc5cccc(F)c5)c(Cl)c4)ncnc3s2)cs1
GI50 (OVCAR-5 ovarian): 13.5 µM
TGI (OVCAR-5 ovarian): > 25 µM
GI50 (786-0 renal): 6.44 µM
TGI (786-0 renal): > 18.7 µM
GI50 (MCF7 breast): 10.8 µM
TGI (MCF7 breast): > 25 µM
GI50 (MDA-MB-231 breast): 6.15 µM
TGI (MDA-MB-231 breast): 19.9 µM
GI50 (DU-145 prostate): 13.3 µM
TGI (DU-145 prostate): > 25 µM
GI50 (HOP-62 NSCLC): > 16.8 µM
TGI (HOP-62 NSCLC): > 25 µM
GI50 (SN12C renal): 15.3 µM
TGI (SN12C renal): > 25 µM
GI50 (HCT-116 colon): 12 µM
TGI (HCT-116 colon): > 25 µM
GI50 (NCI/ADR-RES ovarian): 11.3 µM
TGI (NCI/ADR-RES ovarian): > 25 µM
GI50 (KM12 colon): 6.55 µM
TGI (KM12 colon): > 25 µM
GI50 (SNB-19 CNS): 24.6 µM
TGI (SNB-19 CNS): > 25 µM
GI50 (SW-620 colon): 15 µM
TGI (SW-620 colon): > 25 µM
GI50 (PC-3 prostate): 13 µM
TGI (PC-3 prostate): > 25 µM
GI50 (K-562 leukemia): 6.25 µM
TGI (K-562 leukemia): 17.8 µM
GI50 (SK-OV-3 ovarian): 1.04 µM
TGI (SK-OV-3 ovarian): > 19.6 µM
GI50 (HS 578T breast): 4.67 µM
TGI (HS 578T breast): > 17.6 µM
GI50 (LOX IMVI melanoma): 5.56 µM
TGI (LOX IMVI melanoma): 16.3 µM
GI50 (SK-MEL-2 melanoma): 12.8 µM
TGI (SK-MEL-2 melanoma): > 25 µM
GI50 (A549 NSCLC): 10.8 µM
TGI (A549 NSCLC): > 25 µM
GI50 (SK-MEL-5 melanoma): 7.09 µM
TGI (SK-MEL-5 melanoma): > 25 µM
GI50 (EKVX NSCLC): 3.42 µM
TGI (EKVX NSCLC): > 25 µM
GI50 (UACC-257 melanoma): 12.9 µM
TGI (UACC-257 melanoma): > 25 µM
GI50 (SF-539 CNS): 9.92 µM
TGI (SF-539 CNS): > 25 µM
GI50 (A498 renal): 2.27 µM
TGI (A498 renal): > 25 µM
GI50 (U251 CNS): 9.34 µM
TGI (U251 CNS): > 25 µM
GI50 (RXF 393 renal): 2.27 µM
TGI (RXF 393 renal): 11.8 µM
GI50 (OVCAR-4 ovarian): 14.4 µM
TGI (OVCAR-4 ovarian): > 25 µM
GI50 (HL-60(TB) leukemia): 4.18 µM
TGI (HL-60(TB) leukemia): > 25 µM
GI50 (COLO 205 colon): 9.61 µM
TGI (COLO 205 colon): > 25 µM
GI50 (RPMI-8226 leukemia): 6.95 µM
TGI (RPMI-8226 leukemia): 23.2 µM
GI50 (SF-268 CNS): 11.3 µM
TGI (SF-268 CNS): > 25 µM
GI50 (MDA-MB-435): 11 µM
TGI (MDA-MB-435): > 25 µM
GI50 (MALME-3M melanoma): 19.1 µM
TGI (MALME-3M melanoma): > 25 µM
GI50 (UACC-62 melanoma): 7.12 µM
TGI (UACC-62 melanoma): 24.5 µM
GI50 (HCT-15 colon): 5.55 µM
TGI (HCT-15 colon): > 20.9 µM
GI50 (NCI-H522 lung): 9.64 µM
TGI (NCI-H522 lung): > 25 µM
GI50 (SK-MEL-28 melanoma): 12.5 µM
TGI (SK-MEL-28 melanoma): > 25 µM
GI50 (TK-10 renal): 3.16 µM
TGI (TK-10 renal): > 25 µM
GI50 (SNB-75 CNS): 7.9 µM
TGI (SNB-75 CNS): > 25 µM
GI50 (UO-31 renal): 4.52 µM
TGI (UO-31 renal): > 25 µM
GI50 (NCI-H226 lung): 15.1 µM
TGI (NCI-H226 lung): > 25 µM
GI50 (OVCAR-8 ovarian): 16.5 µM
TGI (OVCAR-8 ovarian): > 25 µM
GI50 (HCC-2998 colon): 6.59 µM
TGI (HCC-2998 colon): 21.5 µM
GI50 (IGROV1 ovarian): 5.61 µM
TGI (IGROV1 ovarian): > 25 µM
GI50 (SR leukemia): 7.39 µM
TGI (SR leukemia): > 25 µM
GI50 (ACHN renal): 7.35 µM
TGI (ACHN renal): > 25 µM
GI50 (HOP-92 NSCLC): 4.34 µM
TGI (HOP-92 NSCLC): > 25 µM
GI50 (M14 melanoma): 13.4 µM
TGI (M14 melanoma): > 25 µM
GI50 (NCI-H23 lung): 20.5 µM
TGI (NCI-H23 lung): > 25 µM
GI50 (HT29 colon): 5.41 µM
TGI (HT29 colon): 13.1 µM
GI50 (SF-295 CNS): 9.89 µM
TGI (SF-295 CNS): > 25 µM
GI50 (NCI-H460 lung): 9.64 µM
TGI (NCI-H460 lung): > 25 µM
GI50 (MOLT-4 leukemia): 8.9 µM
TGI (MOLT-4 leukemia): > 25 µM
GI50 (BT-549 breast): 17.2 µM
TGI (BT-549 breast): > 25 µM
GI50 (T-47D breast): 3 µM
TGI (T-47D breast): > 23.6 µM
GI50 (CCRF-CEM leukemia): 11 µM
TGI (CCRF-CEM leukemia): > 25 µM
GI50 (OVCAR-3 ovarian): 6.82 µM
TGI (OVCAR-3 ovarian): > 25 µM
GI50 (CAKI-1 renal): 4.79 µM
TGI (CAKI-1 renal): > 25 µM
